From PubChem BioAssay AID330 (DTP/NCI, 2004)
Where “and” joins values, the source holds several entries; their conditions need not be identical. Equal entries are not always repeated. Toxic doses and inconclusive results are not listed. The calls were made as follows: active = survival T/C of 150% or more; inactive = T/C below 125% in these data.

Tested on: P388 leukemia ip, CD2F1 mice, survival T/C
Test: NCI In Vivo Anticancer Drug Screen. Data for tumor model P388 Leukemia (intraperitoneal) in CD2F1 (CDF1) mice
Settings: endpoint: median survival time, higher = longer survival
How it was run: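 Mice carrying the transplanted tumor received test compound or vehicle. Survival was recorded in each group, and the value is the treated-group measurement divided by that of the vehicle-treated control group.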

[1] = dose: 6.25 mg/kg/injection, schedule: Q01DX009 (ip), vehicle: Klucel (hydroxypropylcellulose) (HPC)
[2] = dose: 12.5 mg/kg/injection, schedule: Q01DX009 (ip), vehicle: Klucel (hydroxypropylcellulose) (HPC)
[3] = dose: 25.0 mg/kg/injection, schedule: Q01DX009 (ip), vehicle: Klucel (hydroxypropylcellulose) (HPC)
[4] = dose: 50.0 mg/kg/injection, schedule: Q01DX009 (ip), vehicle: Klucel (hydroxypropylcellulose) (HPC)
[5] = dose: 100.0 mg/kg/injection, schedule: Q01DX009 (ip), vehicle: Klucel (hydroxypropylcellulose) (HPC)
[6] = dose: 200.0 mg/kg/injection, schedule: Q01DX009 (ip), vehicle: Klucel (hydroxypropylcellulose) (HPC)
[7] = dose: 25.0 mg/kg/injection, schedule: Q04DX003 (ip), vehicle: saline
[8] = dose: 100.0 mg/kg/injection, schedule: Q04DX003 (ip), vehicle: saline
[9] = dose: 60.0 mg/kg/injection, schedule: Q01DX005 (ip), vehicle: Klucel (hydroxypropylcellulose) (HPC)
[10] = dose: 120.0 mg/kg/injection, schedule: Q01DX005 (ip), vehicle: Klucel (hydroxypropylcellulose) (HPC)
[11] = dose: 240.0 mg/kg/injection, schedule: Q01DX005 (ip), vehicle: Klucel (hydroxypropylcellulose) (HPC)
[12] = dose: 60.0 mg/kg/injection, schedule: Q01DX005 (ip), vehicle: saline with Tween-80
[13] = dose: 120.0 mg/kg/injection, schedule: Q01DX005 (ip), vehicle: saline with Tween-80
[14] = dose: 240.0 mg/kg/injection, schedule: Q01DX005 (ip), vehicle: saline with Tween-80
[15] = dose: 50.0 mg/kg/injection, schedule: Q01DX005 (ip), vehicle: saline with Tween-80
[16] = dose: 100.0 mg/kg/injection, schedule: Q01DX005 (ip), vehicle: saline with Tween-80
[17] = dose: 200.0 mg/kg/injection, schedule: Q01DX005 (ip), vehicle: saline with Tween-80
[18] = dose: 50.0 mg/kg/injection, schedule: Q01DX005 (ip), vehicle: Klucel (hydroxypropylcellulose) (HPC)
[19] = dose: 100.0 mg/kg/injection, schedule: Q01DX005 (ip), vehicle: Klucel (hydroxypropylcellulose) (HPC)
[20] = dose: 200.0 mg/kg/injection, schedule: Q01DX005 (ip), vehicle: Klucel (hydroxypropylcellulose) (HPC)

Measured: T/C

O=[N+]([O-])c1ccc(N=Nc2ccc(N(CCCl)CCCl)cc2)cc1
inactive: dose: 50.0 mg/kg/injection, schedule: Q04DX003 (ip), vehicle: Klucel (hydroxypropylcellulose) (HPC) 100 % of control | dose: 100.0 mg/kg/injection, schedule: Q04DX003 (ip), vehicle: Klucel (hydroxypropylcellulose) (HPC) 100 % of control | dose: 200.0 mg/kg/injection, schedule: Q04DX003 (ip), vehicle: Klucel (hydroxypropylcellulose) (HPC) 106 % of control

O=C(CC(=O)N1CCN=C1Nc1c(Cl)cccc1Cl)c1ccc(Cl)cc1
inactive: [1] 109 % of control | [2] 105 % of control | [3] 96 % of control

CCOC(=O)CCC(Cl)(Cl)Cl
inactive: [4] 100 % of control | [5] 100 % of control | [6] 97 % of control

[Cl][Pd][Cl].[NH-]C(C(=O)OCc1ccccc1)c1ccccc1.[NH-]C(C(=O)OCc1ccccc1)c1ccccc1 (stereo not given)
inactive: dose: 6.25 mg/kg/injection, schedule: Q04DX003 (ip), vehicle: saline 100 % of control | dose: 12.5 mg/kg/injection, schedule: Q04DX003 (ip), vehicle: saline 100 % of control | [7] 97 % of control | [8] 108 % of control

COc1cc2c3c(c1OC)-c1[nH]c4ccccc4c1C1CCCN(CC2)C31 (stereo not given)
inactive: [9] 95 % of control | [10] 96 % of control | [11] 98 % of control

O=C(O)C1C2C=CC(C2)C1c1c2ccc(=O)c(O)c-2oc2c(O)c(O)ccc12 (stereo not given)
inactive: [12] 102 % of control | [13] 101 % of control | [14] 111 % of control

S=C1NCCCN1
inactive: [7] 99 % of control | dose: 50.0 mg/kg/injection, schedule: Q04DX003 (ip), vehicle: saline 104 % of control | [8] 100 % of control | dose: 200.0 mg/kg/injection, schedule: Q04DX003 (ip), vehicle: saline 100 % of control

CN(C)c1nc(N)nc2c1nc(Cl)n2C1OC(CO)C(O)C1O (stereo not given)
inactive: [15] 99 % of control | [16] 100 % of control | [17] 100 % of control

CCCOC(=O)c1ccc2nc(NC(=O)OC)[nH]c2c1
inactive: [15] 96 % of control | [16] 91 % of control | [17] 97 % of control

C=C1CC2(CCC23CC(=C)C(=O)O3)OC1=O (stereo not given)
inactive: dose: 5.0 mg/kg/injection, schedule: Q01DX009 (ip), vehicle: Klucel (hydroxypropylcellulose) (HPC) 100 % of control | dose: 10.0 mg/kg/injection, schedule: Q01DX009 (ip), vehicle: Klucel (hydroxypropylcellulose) (HPC) 116 % of control | dose: 20.0 mg/kg/injection, schedule: Q01DX009 (ip), vehicle: Klucel (hydroxypropylcellulose) (HPC) 117 % of control

Cc1cc(C(=O)NN)c(C#N)c(=O)[nH]1
inactive: dose: 100.0 mg/kg/injection, schedule: Q01DX009 (ip), vehicle: saline 100 % of control | dose: 200.0 mg/kg/injection, schedule: Q01DX009 (ip), vehicle: saline 109 % of control | dose: 400.0 mg/kg/injection, schedule: Q01DX009 (ip), vehicle: saline 90 % of control

CC1=NS(C)(=O)=c2ccc(C)cc2=N1 (stereo not given)
inactive: dose: 50.0 mg/kg/injection, schedule: Q01DX005 (ip), vehicle: acetone 100 % of control | dose: 100.0 mg/kg/injection, schedule: Q01DX005 (ip), vehicle: acetone 100 % of control | dose: 200.0 mg/kg/injection, schedule: Q01DX005 (ip), vehicle: acetone 100 % of control

Cn1c(=O)ccc2c(=O)c3ccccc3oc21
inactive: dose: 100.0 mg/kg/injection, schedule: Q04DX002 (ip), vehicle: saline with Tween-80 100 % of control | dose: 200.0 mg/kg/injection, schedule: Q04DX002 (ip), vehicle: saline with Tween-80 110 % of control | dose: 400.0 mg/kg/injection, schedule: Q04DX002 (ip), vehicle: saline with Tween-80 107 % of control

O=C(Nc1cc(Cl)cc(Cl)c1)OC1CC2CC1C1CC3OC3C21 (stereo not given)
inactive: [18] 94 % of control | [19] 99 % of control | [20] 92 % of control

COc1ccc(C2NCc3c(sc4c3CCCC4)-n3cccc32)cc1 (stereo not given)
inactive: [15] 87 % of control | [16] 87 % of control | [17] 87 % of control

O=C(O)CCN1c2ccccc2Sc2ccccc21
inactive: [4] 89 % of control | [5] 100 % of control | [6] 99 % of control | dose: 400.0 mg/kg/injection, schedule: Q01DX009 (ip), vehicle: Klucel (hydroxypropylcellulose) (HPC) 101 % of control

CCOC(=O)C(=CNc1cc(C(F)(F)F)ccc1N1CCOCC1)C(=O)OCC
inactive: [4] 97 % of control | [5] 100 % of control | [6] 100 % of control

Cc1[nH]c(C)c(Br)c(=O)c1F
inactive: [1] 116 % of control | [2] 110 % of control | [3] 100 % of control

CCO/C=C1\N=C(C(O)(c2ccc(Cl)cc2)c2ccc(Cl)cc2)OC1=O
inactive: [9] 95 % of control | [10] 92 % of control | [11] 98 % of control

COc1c(C)cc(Cc2ccc3c(c2)OCO3)cc1C
inactive: [18] 109 % of control | [19] 109 % of control | [20] 113 % of control

CC1C(c2ccccc2)=Nn2c(=O)n(-c3ccccc3)c(=O)n21 (stereo not given)
inactive: dose: 25.0 mg/kg/injection, schedule: Q01DX009 (ip), vehicle: other 90 % of control | dose: 50.0 mg/kg/injection, schedule: Q01DX009 (ip), vehicle: other 91 % of control | dose: 100.0 mg/kg/injection, schedule: Q01DX009 (ip), vehicle: other 91 % of control | dose: 200.0 mg/kg/injection, schedule: Q01DX009 (ip), vehicle: other 89 % of control | dose: 400.0 mg/kg/injection, schedule: Q01DX009 (ip), vehicle: other 86 % of control

CC1CCN(CC#CCN2C(=O)CCC2=O)CC1
inactive: dose: 25.0 mg/kg/injection, schedule: Q01DX005 (ip), vehicle: Klucel (hydroxypropylcellulose) (HPC) 104 % of control | [18] 103 % of control | [19] 107 % of control | [20] 107 % of control

O=C(Nc1ccc(C(=O)O)cc1)Nc1cc(C(F)(F)F)ccc1Cl
inactive: [12] 105 % of control | [13] 105 % of control | [14] 105 % of control

O=C(N/N=C/c1cc(Cl)cc(Cl)c1[O-])c1ccccc1.O=C(N/N=C/c1cc(Cl)cc(Cl)c1[O-])c1ccccc1.[Zn+2]
inactive: dose: 100.0 mg/kg/injection, schedule: Q01DX001 (ip), vehicle: saline with Tween-80 92 % of control | dose: 200.0 mg/kg/injection, schedule: Q01DX001 (ip), vehicle: saline with Tween-80 94 % of control | dose: 400.0 mg/kg/injection, schedule: Q01DX001 (ip), vehicle: saline with Tween-80 92 % of control

CCCCOc1ccc2nc(C)cc(N=[N+]=[N-])c2c1
inactive: dose: 30.0 mg/kg/injection, schedule: Q01DX005 (ip), vehicle: saline with Tween-80 94 % of control | [12] 86 % of control and 94 % of control | [13] 97 % of control | [14] 92 % of control

CC(O)CCOCCCBr (stereo not given)
inactive: dose: 50.0 mg/kg/injection, schedule: Q01DX005 (ip), vehicle: saline 100 % of control | dose: 100.0 mg/kg/injection, schedule: Q01DX005 (ip), vehicle: saline 102 % of control | dose: 200.0 mg/kg/injection, schedule: Q01DX005 (ip), vehicle: saline 102 % of control
